Earlier results on 1 compound are cited in patent US20230066204A1 (OYE Therapeutics, Inc, priority 2019, published 2023).

In the data set the test system is rat. The conditions noted are these: administered intravenously.

Turning to `Cn1c(=O)c2c(ncn2C)n(C)c1=O` [Caffeine], the “accelerating emergence from anesthesia” value is reported as “effective in accelerating emergence from anesthesia”.
